Experiment: molar heat capacity at constant pressure
Settings: 101.33 kPa

CCC(O)CC [3-pentanol]
Settings | molar heat capacity at constant pressure [J/K/mol]
152.99 K, Liquid | 150.52
154.56 K, Crystal | 105.87
155.94 K, Liquid | 150.86
156.51 K, Crystal | 107.42
158.46 K, Crystal | 108.86
158.9 K, Liquid | 151.16
160 K, Crystal | 118.8
160.42 K, Crystal | 110.34
161.85 K, Liquid | 151.55
162.38 K, Crystal | 111.71
164.37 K, Crystal | 103.35
164.81 K, Liquid | 152.15
166.37 K, Crystal | 115.34
167.78 K, Liquid | 153.56
168.31 K, Crystal | 115.72
170 K, Crystal | 110.3
170.23 K, Crystal | 116.98
170.76 K, Liquid | 159.22
172.17 K, Crystal | 118.28
174.1 K, Crystal | 119.45
176.01 K, Crystal | 120.74
177.92 K, Crystal | 121.98
179.81 K, Crystal | 123.05
180 K, Crystal | 123.2
181.69 K, Crystal | 124.1
183.56 K, Crystal | 125.1
185.42 K, Crystal | 126.2
187.27 K, Crystal | 127.45
189.1 K, Crystal | 129.05
190 K, Crystal | 129.8
190.93 K, Crystal | 130.67
191.18 K, Crystal | 146.69
192.74 K, Crystal | 132.33
193.08 K, Crystal | 133.23
194.53 K, Crystal | 134.71
194.98 K, Crystal | 136.27
196.31 K, Crystal | 137.6
197.93 K, Crystal | 143.45
198.06 K, Crystal | 141.76
200 K, Crystal | 155.5
206.59 K, Liquid | 163.08
206.86 K, Liquid | 162.81
208.54 K, Liquid | 163.45
209.46 K, Liquid | 164.31
210 K, Liquid | 164.2
210.2 K, Liquid | 164.21
211.87 K, Liquid | 164.95
212.32 K, Liquid | 165.57
213.52 K, Liquid | 165.62
215.16 K, Liquid | 167.02
215.17 K, Liquid | 166.57
216.82 K, Liquid | 167.31
217.99 K, Liquid | 168.45
218.46 K, Liquid | 168.22
220 K, Liquid | 169.1
220.1 K, Liquid | 169.14
220.8 K, Liquid | 170.05
221.73 K, Liquid | 170.07
223.36 K, Liquid | 170.87
223.59 K, Liquid | 171.64
224.98 K, Liquid | 171.87
226.37 K, Liquid | 173.5
226.59 K, Liquid | 172.95
228.2 K, Liquid | 173.95
229.13 K, Liquid | 175.38
229.81 K, Liquid | 174.99
230 K, Liquid | 175.1
231.41 K, Liquid | 176.24
231.88 K, Liquid | 177.23
233 K, Liquid | 177.29
234.59 K, Liquid | 178.66
234.61 K, Liquid | 179.15
236.17 K, Liquid | 179.8
237.32 K, Liquid | 181.22
237.75 K, Liquid | 180.73
239.32 K, Liquid | 182.03
240 K, Liquid | 183.5
240.01 K, Liquid | 183.55
240.89 K, Liquid | 183.27
242.45 K, Liquid | 184.57
242.69 K, Liquid | 185.78
244 K, Liquid | 185.93
245.34 K, Liquid | 188.15
245.55 K, Liquid | 187.34
247.09 K, Liquid | 188.71
247.98 K, Liquid | 190.62
248.63 K, Liquid | 190.19
250 K, Liquid | 191.4
250.16 K, Liquid | 191.69
250.61 K, Liquid | 193.22
251.68 K, Liquid | 193.3
253.2 K, Liquid | 194.61
253.21 K, Liquid | 195.73
254.72 K, Liquid | 195.45
255.8 K, Liquid | 198.08
256.23 K, Liquid | 197.32
257.73 K, Liquid | 198.94
258.37 K, Liquid | 201.08
259.23 K, Liquid | 200.52
260 K, Liquid | 201
260.72 K, Liquid | 202.41
260.93 K, Liquid | 204.02
262.21 K, Liquid | 203.99
263.46 K, Liquid | 207.15
263.69 K, Liquid | 205.59
265.16 K, Liquid | 207.37
265.98 K, Liquid | 210.2
266.63 K, Liquid | 209.14
268.09 K, Liquid | 210.93
268.47 K, Liquid | 213.3
269.54 K, Liquid | 212.66
270 K, Liquid | 213.6
270.95 K, Liquid | 216.47
270.99 K, Liquid | 214.5
272.44 K, Liquid | 216.21
273.41 K, Liquid | 219.31
273.87 K, Liquid | 218
275.3 K, Liquid | 219.86
275.85 K, Liquid | 222.84
276.73 K, Liquid | 221.67
278.15 K, Liquid | 223.45
278.28 K, Liquid | 226.05
279.56 K, Liquid | 225.24
280 K, Liquid | 227
280.68 K, Liquid | 229.31
280.97 K, Liquid | 227.16
282.37 K, Liquid | 228.87
283.07 K, Liquid | 232.43
283.76 K, Liquid | 230.71
285.15 K, Liquid | 232.47
285.44 K, Liquid | 235.64
286.54 K, Liquid | 234.44
287.8 K, Liquid | 239.08
287.92 K, Liquid | 236.08
289.29 K, Liquid | 237.78
290 K, Liquid | 238.7
290.66 K, Liquid | 239.56
292.02 K, Liquid | 241.24
293.38 K, Liquid | 242.8
294.74 K, Liquid | 244.64
296.09 K, Liquid | 246.1
297.43 K, Liquid | 247.9
298.15 K, Liquid | 248.7
298.77 K, Liquid | 249.27
300 K, Liquid | 250.7
300.11 K, Liquid | 250.87
301.44 K, Liquid | 252.15
302.77 K, Liquid | 254
304.09 K, Liquid | 255.2
305.41 K, Liquid | 256.63
306.73 K, Liquid | 258.11
308.04 K, Liquid | 259.35
309.35 K, Liquid | 260.74

From the NIST ThermoML archive (doi:10.1021/je060411g)
